Laboratory results published in PubChem BioAssay AID278 (DTP/NCI, 2004).
“And” between values parts separate entries of the source, which are not always exact repeats. Equal values may be shown once. Records with an inconclusive call do not appear.

System: nude mice, A549 intrarenal xenograft, tumor weight change
Experiment: NCI In Vivo Anticancer Drug Screen. Data for tumor model A549 Human Adenocarcinoma of Lung with characteristics of Type II Alveolar Epithelial cells (intrarenal inoculation) in NU/NU BALB/C (nude) mice
Settings: endpoint: mean tumor weight change, schedule: Q04DX003 (ip), higher = larger tumour
In short: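 Mice bearing transplantable tumors were treated and survival or tumor size recorded. Values are given as treated-group measurement divided by vehicle-control measurement (T/C).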

[1] = dose: 10.0 mg/kg/injection, vehicle: Klucel (hydroxypropylcellulose) (HPC)
[2] = dose: 12.5 mg/kg/injection, vehicle: saline with Tween-80
[3] = dose: 25.0 mg/kg/injection, vehicle: saline with Tween-80
[4] = dose: 75.0 mg/kg/injection, vehicle: saline
[5] = dose: 150.0 mg/kg/injection, vehicle: saline
[6] = dose: 37.5 mg/kg/injection, vehicle: saline with Tween-80
[7] = dose: 150.0 mg/kg/injection, vehicle: saline with Tween-80
[8] = dose: 300.0 mg/kg/injection, vehicle: saline with Tween-80
[9] = dose: 600.0 mg/kg/injection, vehicle: saline with Tween-80
[10] = dose: 25.0 mg/kg/injection, vehicle: saline
[11] = dose: 50.0 mg/kg/injection, vehicle: saline
[12] = dose: 100.0 mg/kg/injection, vehicle: saline

CCCCCC[Se][Se]CCCCCC was tested, and the T/C [1] was 106 % of control, the T/C (dose: 20.0 mg/kg/injection, vehicle: Klucel (hydroxypropylcellulose) (HPC)) was 38 % of control and the T/C (dose: 40.0 mg/kg/injection, vehicle: Klucel (hydroxypropylcellulose) (HPC)) was 70 % of control. The T/C (dose: 80.0 mg/kg/injection, vehicle: Klucel (hydroxypropylcellulose) (HPC)) was 71 % of control.

CCC(NC(N)=O)C(CC)NC(N)=O (configuration not stated) was tested, and the T/C (dose: 6.25 mg/kg/injection, vehicle: saline with Tween-80) was 68 % of control, the T/C [2] was 120 % of control and the T/C [3] was 102 % of control.

In the case of CC(C)N1C(=O)N(Cl)C2C1N(Cl)C(=O)N2Cl (configuration not stated), the T/C [2] is reported as 51 % of control and 76 % of control and the T/C [3] is reported as 18 % of control.

In the case of COc1ccc2oc(-c3ccc(Cl)cc3)c(N3CCN(C)CC3)c2c1, the T/C [4] is reported as 21 % of control and the T/C [5] is reported as 24 % of control.

In the case of c1cc2c(c(CC3CO3)c1CC1CO1)OCCOCCOCCOCCO2 (configuration not stated), the T/C (dose: 62.5 mg/kg/injection, vehicle: saline + alcohol) is reported as 74 % of control, the T/C (dose: 125.0 mg/kg/injection, vehicle: saline + alcohol) is reported as 98 % of control and the T/C (dose: 250.0 mg/kg/injection, vehicle: saline + alcohol) is reported as 64 % of control. For the same molecule, the T/C (dose: 375.0 mg/kg/injection, vehicle: saline + alcohol) was 75 % of control.

In the case of Nc1cc2c(cc1Br)-c1c(C(=O)O)cccc1C2O (configuration not stated), the T/C (dose: 150.0 mg/kg/injection, vehicle: sodium bicarbonate) is reported as 74 % of control, the T/C (dose: 300.0 mg/kg/injection, vehicle: sodium bicarbonate) is reported as 78 % of control and the T/C (dose: 600.0 mg/kg/injection, vehicle: sodium bicarbonate) is reported as 68 % of control. For the same molecule, the T/C (dose: 1200.0 mg/kg/injection, vehicle: sodium bicarbonate) was 56 % of control.

For NC(Cc1ccccc1)C(=O)OCN1C(=O)C2C3C=CC(C2C1=O)C1C2C(=O)N(COC(=O)C(N)Cc4ccccc4)C(=O)C2C31 (configuration not stated), the T/C (dose: 25.0 mg/kg/injection, vehicle: other) was 82 % of control, the T/C (dose: 50.0 mg/kg/injection, vehicle: other) was 73 % of control and the T/C (dose: 100.0 mg/kg/injection, vehicle: other) was 48 % of control. The T/C (dose: 200.0 mg/kg/injection, vehicle: other) was 35 % of control.

In the case of O=C1C(=O)c2cccnc2-c2ncccc21, the T/C (dose: 1.25 mg/kg/injection, vehicle: Klucel (hydroxypropylcellulose) (HPC)) is reported as 59 % of control, the T/C (dose: 2.5 mg/kg/injection, vehicle: Klucel (hydroxypropylcellulose) (HPC)) is reported as 55 % of control and the T/C [1] is reported as 6 % of control.

In the case of O=C(Oc1ccccc1)c1cc(O)c(O)c(O)c1, the T/C (dose: 18.75 mg/kg/injection, vehicle: saline) is reported as 60 % of control, the T/C (dose: 37.5 mg/kg/injection, vehicle: saline) is reported as 80 % of control and the T/C [4] is reported as 50 % of control. The T/C [5] was 62 % of control.

With c1ccc([Te][Te]c2ccccc2)cc1 the T/C (dose: 9.38 mg/kg/injection, vehicle: saline with Tween-80) was 71 % of control, the T/C (dose: 18.75 mg/kg/injection, vehicle: saline with Tween-80) was 59 % of control and the T/C [6] was 122 % of control.

With CC1(C)Nc2cc3c(cc2-n2cccc21)oc1ccccc13 the T/C [5] was 77 % of control, the T/C (dose: 300.0 mg/kg/injection, vehicle: saline) was 98 % of control and the T/C (dose: 600.0 mg/kg/injection, vehicle: saline) was 66 % of control. The T/C (dose: 1200.0 mg/kg/injection, vehicle: saline) was 57 % of control.

With O=C1c2ccccc2C(Cl)(c2ccc(Cl)cc2)c2ccc(Cl)cc21 (configuration not stated) the T/C [7] was 244 % of control.

For Nc1n[nH]c2ccccc12, the T/C [7] was 69 % of control, the T/C [8] was 52 % of control and the T/C [9] was 33 % of control.

For CC[C@@]1(O)C(=O)OCc2c1cc1n(c2=O)Cc2cc3c(N)cccc3nc2-1, the T/C (dose: 1.0 mg/kg/injection, vehicle: saline with Tween-80) was 3 % of control, the T/C (dose: 1.44 mg/kg/injection, vehicle: saline with Tween-80) was 1 % of control and the T/C (dose: 2.0 mg/kg/injection, vehicle: saline with Tween-80) was -8 % of control. For the same molecule, the T/C (dose: 2.4 mg/kg/injection, vehicle: saline with Tween-80) was -64 % of control and the T/C (dose: 4.0 mg/kg/injection, vehicle: saline with Tween-80) was -68 % of control.

For [Cl][Pt][Cl].[NH-]C(CO)C(=O)O (configuration not stated), the T/C (dose: 37.5 mg/kg/injection, vehicle: water) was 93 % of control, the T/C (dose: 75.0 mg/kg/injection, vehicle: water) was 247 % of control and the T/C (dose: 150.0 mg/kg/injection, vehicle: water) was 63 % of control.

O=C(/C=C/c1cccnc1)/C=C/c1cccnc1 was tested, and the T/C (dose: 12.5 mg/kg/injection, vehicle: Klucel (hydroxypropylcellulose) (HPC)) was 91 % of control and the T/C (dose: 100.0 mg/kg/injection, vehicle: Klucel (hydroxypropylcellulose) (HPC)) was 54 % of control.

For O=C1CN(CCN2CC(=O)N(CN3CCOCC3)C(=O)C2)CC(=O)N1CN1CCOCC1, the T/C [6] was 51 % of control and the T/C (dose: 75.0 mg/kg/injection, vehicle: saline with Tween-80) was 60 % of control.

With Nc1nc(Br)nc2c1ncn2C1CC(O)C(CO)O1 (configuration not stated) the T/C [10] was 92 % of control, the T/C [11] was 121 % of control and the T/C [12] was 96 % of control. The T/C (dose: 200.0 mg/kg/injection, vehicle: saline) was 74 % of control.

In the case of COC1=C(OC)C(=O)C(N(C)C)=C(CO)C1=O, the T/C [11] is reported as 123 % of control and the T/C [12] is reported as 173 % of control.

With S=C(NCNC(=S)c1ccncc1)c1ccncc1 the T/C [7] was 420 % of control, the T/C [8] was 260 % of control and the T/C [9] was 317 % of control.

In the case of Cn1c2ccccc2c2ccc3c(c21)C(=O)C=CC3=O, the T/C [3] is reported as 61 % of control, the T/C (dose: 50.0 mg/kg/injection, vehicle: saline with Tween-80) is reported as 26 % of control and the T/C (dose: 100.0 mg/kg/injection, vehicle: saline with Tween-80) is reported as 38 % of control. The T/C (dose: 200.0 mg/kg/injection, vehicle: saline with Tween-80) was 35 % of control.

With COC1CC2C=C(C)/C=C/C=C/C(=O)NC(c3ccccc3)C/C=C/CCC(O)CC(=O)C2=C1O (configuration not stated) the T/C (dose: 37.5 mg/kg/injection, vehicle: Klucel (hydroxypropylcellulose) (HPC)) was 17 % of control, the T/C (dose: 75.0 mg/kg/injection, vehicle: Klucel (hydroxypropylcellulose) (HPC)) was 115 % of control and the T/C (dose: 150.0 mg/kg/injection, vehicle: Klucel (hydroxypropylcellulose) (HPC)) was 113 % of control.

With S=c1sc2ccccc2n1CN1CCOCC1 the T/C [7] was 81 % of control, the T/C [8] was 172 % of control and the T/C [9] was 57 % of control.

Cc1ccc(C(=O)Nc2ccc(S(=O)(=O)O)c3cc(S(=O)(=O)O)cc(S(=O)(=O)O)c23)cc1NC(=O)c1cccc(NC(=O)Nc2cccc(C(=O)Nc3cc(C(=O)Nc4ccc(S(=O)(=O)O)c5cc(S(=O)(=O)O)cc(S(=O)(=O)O)c45)ccc3C)c2)c1 was tested, and the T/C [10] was 99 % of control, the T/C [11] was 100 % of control and the T/C [12] was 112 % of control.

For [CH3][Sn]([CH3])([Cl])[c]1cc[c]([Sn]([CH3])([CH3])[Cl])cc1, the T/C (dose: 1.25 mg/kg/injection, vehicle: saline) was 84 % of control, the T/C (dose: 2.5 mg/kg/injection, vehicle: saline) was 160 % of control and the T/C (dose: 5.0 mg/kg/injection, vehicle: saline) was 70 % of control.

For CN1COc2c(n(C)c(=O)[nH]c2=O)C1, the T/C (dose: 150.0 mg/kg/injection, vehicle: suspension in saline) was 97 % of control, the T/C (dose: 300.0 mg/kg/injection, vehicle: suspension in saline) was 46 % of control and the T/C (dose: 600.0 mg/kg/injection, vehicle: suspension in saline) was 88 % of control. The T/C (dose: 1200.0 mg/kg/injection, vehicle: suspension in saline) was 67 % of control.
